Assay results as given in ChEMBL document CHEMBL1121734, “New synthesis of N-[4-[[(2-amino-4(3H)-oxopyrido[3,2-d]pyrimidin-6-yl)methyl]amino]benzoyl]-L-glutamic acid (8-deazafolic acid) and the preparation of some 5,6,7,8-tetrahydro derivatives” (1981).

Key:
[1] = test system: Epidermoid carcinoma cell line; assay: Concentration required for inhibition of colony formation (cytotoxicity) against human epidermoid carcinoma cell number 2; format: functional; conditions: read-out: ED50 (the source's name)
[2] = target: T1, Dihydrofolate reductase (Bos taurus) (UniProt P00376)
T1 sequence (whole entry): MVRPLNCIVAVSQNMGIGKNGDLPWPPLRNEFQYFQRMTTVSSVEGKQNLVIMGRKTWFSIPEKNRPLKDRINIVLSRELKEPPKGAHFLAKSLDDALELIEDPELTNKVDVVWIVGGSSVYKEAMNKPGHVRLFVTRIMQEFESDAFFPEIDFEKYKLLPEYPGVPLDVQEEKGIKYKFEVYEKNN
Description: Inhibition of bovine dihydrofolate reductase

Structure (SMILES) | EC50 [1] | ID50 [2]
Nc1nc(O)c2c(n1)CCC(CN(C=O)c1ccc(C(=O)NC(CCC(=O)O)C(=O)O)cc1)N2 (configuration not stated) | 28 µM | 
Nc1nc(O)c2nc(CN(C=O)c3ccc(C(=O)NC(CCC(=O)O)C(=O)O)cc3)ccc2n1 (configuration not stated) | 32 µM | 
Nc1nc(O)c2nc(C(=O)Nc3ccc(C(=O)NC(CCC(=O)O)C(=O)O)cc3)ccc2n1 (configuration not stated) | 100 µM | 
CN(Cc1cnc2nc(N)nc(N)c2n1)c1ccc(C(=O)N[C@@H](CCC(=O)O)C(=O)O)cc1 [METHOTREXATE] | 0.001 µM | 
Nc1nc(O)c2c(n1)CCC1CN(c3ccc(C(=O)NC(CCC(=O)O)C(=O)O)cc3)C=[N+]21 (configuration not stated) | 8 µM | 4.6 µM
Nc1nc(O)c2nc(CNc3ccc(C(=O)NC(CCC(=O)O)C(=O)O)cc3)ccc2n1 (configuration not stated) | 23 µM | 
